According to ChEMBL document CHEMBL6134860, “Discovery and optimization of a novel carboxamide scaffold with selective antimalarial activity” (Eur J Med Chem, 2025):

What was measured:
[1] = test system: Plasmodium falciparum; experiment: microbe, parasite or virus in culture; format: functional, organism-based; conditions: W2, 72 h
[2] = Cytotoxicity against human HepG2 cells measured after 72 hrs by hoechst 33342 staining based imaging assay; format: toxicity, cell-based

Row | SMILES | EC50 ([1]; read-out: pEC50 (converted)) | CC50 at 72 h ([2]; read-out: CC50) | CC50 at 72 h ([2]; read-out: pCC50 (converted)) | EC50 ([1]; read-out: EC50)
1 | CC(C)c1ccc(-n2cnc(C(=O)N(C)c3ccc(Cl)cc3)n2)cc1 | 0.851 µM | > 10 µM | > 10 µM | –
2 | COc1ccc(N(C)C(=O)c2ncn(-c3ccc(OC)cc3)n2)cc1 | > 10 µM | > 10 µM | > 10 µM | > 10 µM
3 | CN(C(=O)c1cnc(-c2ccc(Cl)cc2)[nH]1)c1ccc(Cl)cc1 | > 2.24 µM | > 10 µM | > 10 µM | > 2.26 µM
4 | O=C(c1ccc(Cl)cc1)c1ncc(-c2ccc(Cl)cc2)o1 | > 10 µM | > 10 µM | > 10 µM | > 10000 µM
5 | Cc1ccc(N(C)C(=O)c2cn(-c3ccc(C)cc3)nn2)cc1 | > 10 µM | > 10 µM | > 10 µM | > 10 µM
6 | CC(=O)c1ccc(N(C)C(=O)c2ncn(-c3ccc(Cl)cc3)n2)cc1 | 2.4 µM | > 10 µM | > 10 µM | –
7 | O=C(Nc1ccc(F)cc1)c1ncn(-c2ccc(Cl)cc2)n1 | > 5.89 µM | > 10 µM | > 10 µM | > 5.88 µM
8 | Cc1ccc(-c2cnc(C(=O)N(C)c3ccc(Cl)cc3)o2)cc1 | 0.676 µM | > 10 µM | > 10 µM | –
9 | Cc1ccc(C(=O)Nc2ncn(-c3ccc(C)cc3)n2)cc1 | 2.51 µM | > 10 µM | > 10 µM | –
10 | CC(=O)c1ccc(NC(=O)c2ncn(-c3ccc(Cl)cc3)n2)cc1 | > 10 µM | > 10 µM | > 10 µM | > 10 µM
11 | CCc1ccc(N(C)C(=O)c2ncn(-c3ccc(Cl)cc3)n2)cc1 | > 5.25 µM | > 10 µM | > 10 µM | > 5.24 µM
12 | Cc1ccc(-c2ncc(C(=O)N(C)c3ccc(Cl)cc3)[nH]2)cc1 | 3.39 µM | > 10 µM | > 10 µM | –
13 | Cc1ccc(-n2cnc(N(C)C(=O)c3ccc(Cl)cc3)n2)cc1 | > 1.82 µM | > 10 µM | > 10 µM | > 1.8 µM
14 | Cc1ccc(N(C)C(=O)c2ncn(-c3ccc(Cl)cc3)n2)cc1C | 2.34 µM | > 10 µM | > 10 µM | –
15 | Cc1ccc(-n2cnc(C(=O)N(C)c3ccc(C)c(C)c3)n2)cc1 | > 6.92 µM | > 10 µM | > 10 µM | > 6.93 µM
16 | CN(C(=O)c1cnc(-c2ccc(Cl)cc2)o1)c1ccc(Cl)cc1 | > 10 µM | > 10 µM | > 10 µM | > 10 µM
17 | CN(C(=O)c1ncn(-c2ccc(Cl)cc2)n1)c1ccc(F)cc1 | 1.78 µM | > 10 µM | > 10 µM | –
18 | [2H]C([2H])([2H])N(C(=O)c1ncc(-c2ccc(Cl)cc2)o1)c1ccc(Cl)cc1 | 0.389 µM | – | – | 388 µM
19 | CN(C(=O)c1ccc(Cl)cc1)c1ncn(-c2ccc(Cl)cc2)n1 | > 1.51 µM | > 10 µM | > 10 µM | > 1.52 µM
20 | Cc1ccc(-c2cnc(C(=O)N(C)c3ccc(Cl)cc3)s2)cc1 | > 10 µM | > 10 µM | > 10 µM | > 10 µM
21 | COc1ccc(N(C)C(=O)c2ncn(-c3ccc(C(C)C)cc3)n2)cc1 | 1.62 µM | > 10 µM | > 10 µM | –
22 | COc1ccc(-n2cnc(C(=O)N(C)c3ccc(C)c(C)c3)n2)cc1 | > 10 µM | > 10 µM | > 10 µM | > 10 µM
23 | O=C(Nc1ccc(Cl)c(Cl)c1)c1ncn(-c2ccc(Cl)cc2)n1 | > 10 µM | > 10 µM | > 10 µM | > 10 µM
24 | COc1ccc(N(C)C(=O)c2ncn(-c3ccc(C)cc3)n2)cc1 | > 4.07 µM | > 10 µM | > 10 µM | > 4.11 µM
25 | CN(C(=O)c1cc(-c2ccc(Cl)cc2)ccn1)c1ccc(Cl)cc1 | 0.17 µM | – | – | 0.169 µM
26 | CN(C(=O)c1cncc(-c2ccc(Cl)cc2)c1)c1ccc(Cl)cc1 | – | > 10 µM | > 10 µM | –
